Values after ≈ are worked out from the molar mass of the structure shown. Structures can show the parent of a compound that is named as a salt. Where two headings read alike, the source gives them in different places.
Key:
[1] = test system: methicillin-sensitive Staphylococcus pseudintermedius; assay: MBC determination against MSSP clinical isolates; format: cell-based; conditions: nine MSSP isolates; for MBC: Staphylococcus pseudintermedius, lowest concentration that killed 50% of isolates, read-out: MBC50
Experimental: (§1) The MBC was determined by plating 5 μL from wells on the 96-well microtiter plate (where the MIC was determined) where no growth was observed onto Tryptic soy agar (TSA) plates. […] The MBC was categorized as the concentration where ≥99% reduction in bacterial cell count was observed.

[2] = test system: methicillin-resistant Staphylococcus pseudintermedius; assay: MIC by broth microdilution against MRSP clinical isolates; format: cell-based; conditions: for MIC50: Staphylococcus pseudintermedius
Experimental: (§2) Fifteen isolates of S. pseudintermedius (nine MSSP and six MRSP), identified at the Indiana Animal Disease Diagnostic Laboratory from specimens collected from dogs admitted to the small animal teaching hospital at Purdue University, were included in the study. The specimens were not collected specifically for this research study but were obtained from patients admitted to the hospital for treatment. Clinical specimens were inoculated onto 5% sheep blood agar and incubated at 35°C for 18–24 hours. Standard methods including examination of colony morphology and hemolysis and biochemical tests such as tube coagulase, Voges-Proskauer (VP) and fermentation tests for maltose, trehalose and lactose, were used in addition to matrix-assisted laser desorption ionization time of flight mass spectrometry to identify isolates. Antimicrobial susceptibility was determined by broth microdilution using the SensiTitre (Thermofisher Scientific).
(§3) Bacteria were prepared in phosphate-buffered saline (PBS) until a McFarland standard of 0.5 was achieved. The solution was subsequently diluted 1:300 in Mueller-Hinton broth (MHB) to reach a starting inoculum of 1 × 10^5 colony-forming units (CFU/mL). Bacteria were then transferred to a 96-well microtiter plate. Thiazole compounds and antibiotics were added (in triplicate) to wells in the first row of the microtiter plate and then serially diluted along the vertical axis. […] The MIC was categorized as the concentration where there was no visible growth of bacteria observed.

[3] = test system: methicillin-sensitive Staphylococcus pseudintermedius; assay: MIC by broth microdilution against MSSP clinical isolates; format: cell-based; conditions: for MIC50: lowest concentration inhibiting growth in 50% of isolates; for MIC: read-out: MIC Range
Experimental: as §2, §3

[4] = test system: methicillin-resistant Staphylococcus pseudintermedius; assay: MBC determination against MRSP clinical isolates; format: cell-based; conditions: for MBC: Staphylococcus pseudintermedius, read-out: MBC50
Experimental: as §1

MRSP SP3 [5] = assay: Post-antibiotic effect against MRSP; format: cell-based, Staphylococcus pseudintermedius; conditions: 4 × MIC for one hour
Experimental: A tube containing untreated bacterial cells served as a control. Afterward, the compound/antibiotic was washed out by diluting bacteria 1:1000 in MHB. Counts of CFU for all cultures were obtained after washing. Aliquots (100 μL) of bacteria were removed every hour (for 10 hours), serially diluted in PBS, and plated on TSA plates. TSA plates were incubated for 20 hours at 37°C before CFU values were determined.

MRSP SP3 [6] = assay: Time-kill analysis against MRSP; format: cell-based, Staphylococcus pseudintermedius; conditions: 4 × MIC; for time required to completely eliminate MRSP: MRSP SP3, 24 hour incubation at 37°C
Experimental: MRSP SP3 cells in late logarithmic growth phase were diluted to ~1 × 10^6 CFU/mL and exposed to concentrations equivalent to 4 × MIC (in triplicate) of thiazole compounds 1–6 and rifampicin in MHB. Samples (20 μL) were collected after 0, 2, 4, 6, 8, 10, 12, and 24 hours of incubation at 37°C and subsequently serially diluted in PBS. Bacteria were then transferred to TSA plates and incubated at 37°C for 20–24 hours before viable CFU/mL values were determined.

MRSP SP3 [7] = assay: Cell membrane disruption (260/280 nm cell leakage) analysis; format: cell-based, Staphylococcus pseudintermedius; conditions: MRSP SP3, 30 minutes; one-way ANOVA, Tukey, P ≤ 0.05
Experimental: In order to investigate the antimicrobial effect of the thiazole compounds on the integrity of the bacterial cell membrane, the release of 260 and 280 nm absorbing components was determined spectrophotometrically. […] Untreated MRSP SP3 cells or cells treated with vancomycin (inhibits cell wall synthesis in bacterial cells) served as negative controls. For the release of 260 and 280 nm absorbing material, the bacterial suspension (control) was treated with lysostaphin (in 50 mM Tris-HCl, pH 8.00) for 30 minutes. Lysostaphin was used as a positive control due to its mode of action being the disruption of the cross-linking of the pentaglycin bridges in the cell wall of staphylococci bacteria. The absorbance of cell supernatant at 260 and 280 nm was determined using a spectrophotometer (Jenway 6305). The average OD260 and OD280 values of duplicates of each treatment option were calculated and expressed as the proportion of average OD260 (or OD280) for each treatment option compared to the average OD260 (or OD280) for the positive control (lysostaphin).
(§4) All statistical analyses were performed with GraphPad Prism 6.0 (GraphPad Software, La Jolla, CA). Data generated from cytotoxicity analysis of the thiazole compounds against J774.A1 cells and the 260 and 280 nm cell leakage analysis were analyzed using one-way ANOVA, with post hoc Tukey's multiple comparisons test (P < 0.05).

MRSP (SP3) = assay: Multi-step resistance selection; format: cell-based, Staphylococcus pseudintermedius; conditions: for shift in the MIC over ten passages: MRSP SP3, ten serial passages; for MIC: Staphylococcus pseudintermedius
Experimental: To assess the ability of MRSP to develop resistance to the thiazole compounds, a multi-step resistance selection experiment was performed, as described elsewhere. The broth microdilution method for MIC determination against a clinical isolate of MRSP (SP3) was repeated for ten passages over a period of ten days. The initial inoculum was prepared to a McFarland standard of 0.5. The solution was subsequently diluted 1:300 in MHB to reach a starting inoculum of 1 × 10^5 CFU/mL. For each subsequent passage, the inoculum for the MIC determination was adjusted to a final density of approximately 5 × 10^5 CFU/mL using the contents of a well containing a subinhibitory concentration of the compound (where bacterial growth was observed from the previous passage). Bacteria were then transferred to a new 96-well microtiter plate.

[8] = test system: murine macrophage cell line (J774.A1); assay: In vitro cytotoxicity analysis (MTS assay); format: cell-based; conditions: 10 μg/mL, J774.A1, two hours
Experimental: Compounds were assayed at concentrations of 5 μg/mL, 10 μg/mL, 20 μg/mL, and 40 μg/mL against a murine macrophage cell line (J774.A1) (ATCC TIB-67, American Type Culture Collection (ATCC), Manassas, VA, USA) to determine the potential toxic effect in vitro. Cells were cultured in Dulbeco’s modified Eagle’s medium (Sigma-Aldrich, St. Louis, MO, USA) with 10% fetal bovine serum (USA Scientific, Inc.) at 37°C with 5% CO2. Controls received DMSO alone at a concentration equal to that in drug-treated cell samples. The cells were incubated with the compounds in a 96-well plate at 37°C and 5.0% CO2 for two hours prior to addition of the assay reagent MTS 3-(4,5-dimethylthiazol-2-yl)-5-(3-carboxymethoxyphenyl)-2-(4-sulfophenyl)-2H-tetrazolium) (Promega, Madison, WI, USA). Absorbance readings were taken using a kinetic ELISA microplate reader (Molecular Devices, Sunnyvale, CA, USA). The quantity of viable cells after treatment with each compound was expressed as a percentage of the control, DMSO.
as §4

MRSP SP3 [9] = assay: Checkerboard assay of thiazole compounds with oxacillin; format: cell-based, Staphylococcus pseudintermedius; conditions: for ƩFIC: combination with oxacillin, ≤ 0.5 synergistic, > 0.5 to ≤ 4.0 indifference, > 4 antagonistic; for relationship with oxacillin: checkerboard assay
Experimental: The relationship between the thiazole compounds and oxacillin was assessed via a standard checkerboard assay. Bacteria (MRSP SP3) equivalent to a McFarland standard of 0.5 were prepared in PBS. The bacteria were next diluted in MHB to achieve a starting cell density of 1 × 10^5 CFU/mL. MHB was transferred to all wells of a 96-well microtiter plate. […] Oxacillin was serially diluted along the abscissa of the microtiter plate while the thiazole compound was serially diluted along the ordinate. The plate was incubated for 22–24 hours at 37°C. The MIC of the test compound in combination with oxacillin was determined as the lowest concentration of each compound/antibiotic where no visible growth of bacteria was observed. The fractional inhibitory concentration index (ƩFIC) was calculated for each combination as described previously. A synergistic relationship was classified as an FIC index less than or equal to 0.5. […]

[10] = six MRSP isolates, triplicate, read-out: MIC50

Structure (SMILES) | MBC [1] [µg/mL] | MBC Range [1] [µg/mL] | MIC50 [2, 10] [µg/mL] | MIC Range ([2]; six MRSP isolates, triplicate) [µg/mL] | MIC50 ([3]; nine MSSP isolates, triplicate) [µg/mL] | MIC ([3]; nine MSSP isolates, triplicate) [µg/mL] | MBC ([4]; six MRSP isolates) [µg/mL] | MBC Range ([4]; six MRSP isolates) [µg/mL] | Post-antibiotic Effect (MRSP SP3 [5]) [h] | shift in the MIC over ten passages (MRSP (SP3)) | MIC (MRSP (SP3); read-out: initial MIC) [µg/mL] | toxicity to murine macrophage cells (MTS assay) [8] | ƩFIC (MRSP SP3 [9]) | time required to completely eliminate MRSP (MRSP SP3 [6]) | relationship with oxacillin (MRSP SP3 [9]) | other results
CO[C@H]1/C=C/O[C@@]2(C)Oc3c(C)c(O)c4c(O)c(c(/C=N/N5CCN(C)CC5)c(O)c4c3C2=O)NC(=O)/C(C)=C\C=C\[C@H](C)[C@H](O)[C@@H](C)[C@@H](O)[C@@H](C)[C@H](OC(C)=O)[C@@H]1C [Rifampicin, rifampicin, reference compound] | < 0.41 | <0.41 | < 0.41 | <0.41 | < 0.41 | < 0.41 | < 0.41 | <0.41 | >9 | – | – | – | – | – | – | Post-antibiotic Effect (MRSP SP3 [5]; listed as rifampicin): > 9 h; time-kill behaviour (in words) (MRSP SP3 [6]; MRSP SP3): slow bactericidal activity against MRSP SP3 within the first eight hours of the assay before rapid bacterial re-growth
CN[C@H](CC(C)C)C(=O)N[C@H]1C(=O)N[C@@H](CC(N)=O)C(=O)N[C@H]2C(=O)N[C@H]3C(=O)N[C@H](C(=O)N[C@H](C(=O)O)c4cc(O)cc(O)c4-c4cc3ccc4O)[C@H](O)c3ccc(c(Cl)c3)Oc3cc2cc(c3O[C@@H]2O[C@H](CO)[C@@H](O)[C@H](O)[C@H]2O[C@H]2C[C@](C)(N)[C@H](O)[C@H](C)O2)Oc2ccc(cc2Cl)[C@H]1O [vancomycin, vancomycin hydrochloride, reference compound] | – | – | – | – | – | – | – | – | – | – | – | – | – | – | – | absorbance (260 and 280 nm leakage) compared with untreated cells, statistical result (MRSP SP3 [7]): no statistical difference
C/C(=N\NC(=N)N)c1sc(-c2ccc(-c3ccc(F)cc3)cc2)nc1C [Compound 4] | 1.1 (≈ 2.99 µM) | 0.18 to 2.94 | – | 0.37 to 1.47 | 0.73 (≈ 1.99 µM) | 0.18 to 2.94 (≈ 0.49 to 8 µM) | – | – | >9 | two-fold increase | 1.47 (≈ 4 µM) | not toxic | 0.63 | 12 h | – | MIC50 [2]: 1.47 µg/mL (≈ 4 µM); MBC [4]: 1.47 µg/mL (≈ 4 µM)
CCC[C@@H]1C[C@@H](C(=O)N[C@@H]([C@H]2O[C@H](SC)[C@H](O)[C@@H](O)[C@H]2O)[C@H](C)Cl)N(C)C1 [Clindamycin, Clindamycin hydrochloride monohydrate, reference compound] | 0.48 | – | 0.48 | – | 0.48 | 0.24 to 61.4 | 30.7 | – | 2 | – | – | – | – | – | – | Post-antibiotic Effect (MRSP SP3 [5]; listed as clindamycin): two hours
C/C(=N\NC(=N)N)c1sc(-c2ccc(-c3ccc(C(F)(F)F)cc3)cc2)nc1C [Compound 5] | 0.42 (≈ 1.01 µM) | 0.21 to 6.67 | 0.42 (≈ 1.01 µM) | 0.21 to 1.67 | 0.42 (≈ 1.01 µM) | – | 0.42 (≈ 1.01 µM) | 0.21 to 3.34 | 8 | two-fold increase | 1.67 (≈ 4 µM) | not toxic | 0.38 | eight hours | synergistic | MIC (MRSP (SP3); read-out: MIC after the second serial passage (stable until the seventh passage)): 3.34 µg/mL (≈ 8 µM); MIC (MRSP (SP3); read-out: MIC at the seventh passage): 6.68 µg/mL (≈ 16 µM); MIC [3]: 0.21 to 1.67 µg/mL (≈ 0.503 to 4 µM)
C/C(=N\NC(=N)N)c1sc(-c2ccc(-c3cccc4ccccc34)cc2)nc1C [Compound 6] | 1.06 (≈ 2.65 µM) | 0.20 to 3.19 | 0.4 (≈ 1 µM) | 0.20 to 1.60 | 0.8 (≈ 2 µM) | 0.2 to 1.6 (≈ 0.501 to 4 µM) | 0.8 (≈ 2 µM) | 0.20 to 1.60 | >9 | four-fold increase | 1.6 (≈ 4 µM) | toxic | 0.38 | within two hours | synergistic | –

Reference: PMC4472782, “Antibacterial Characterization of Novel Synthetic Thiazole Compounds against Methicillin-Resistant Staphylococcus pseudintermedius” (PLoS ONE, 2015)
